Like-named read-outs stand apart in the source and are kept apart here.

For data set [1] the following is noted: cited from earlier work.
For data set [2] the following is noted: aqueous solution; cited from earlier work.
Data set [3] concerns B. cereus and B. subtilis. As to the kind of experiment: Bacillus spp. counts in inoculated bread post baking. It is filed as cell-based. Conditions: salt level 1.2% w/w, immediately post baking and after cooling. On the procedure:
A salt sample according to Example 7 of the invention was used to test the microbial growth in bread. […] Inoculated and uninoculated loaves (controls) were microbiologically analyzed over 6 days storage at 21° C. and 25° C. Analysis was carried out on day 0 (post baking and after cooling), day 1, day 2 and day 6. The results highlighted two main differences between the two salt types.

A further data set relates to L. monocytogenes. As to the kind of experiment: Microbial growth/survival of L. monocytogenes in frankfurter samples. It is filed as cell-based. The settings on record: equal dosage levels, storage 5° C., no nitrites. The procedure: No nitrites were added to the samples. […] The frankfurters were subject to sensory testing.
The subject of data set [4] is total aerobic viable counts. The data set can be described thus: Total aerobic viable counts in un-inoculated control bread during storage. It is filed as cell-based. Conditions: end of storage (Day 6), both storage temperatures (21° C. and 25° C.). The procedure:
A salt sample according to Example 7 of the invention was used to test the microbial growth in bread. […] Inoculated and uninoculated loaves (controls) were microbiologically analyzed over 6 days storage at 21° C. and 25° C. […] The results highlighted two main differences between the two salt types.

With `[Cl-].[K+]` [KCl, potassium chloride], the Aqueous solubility in data set [1] (Temperature 0 °C) is 21.74 mass-% of solute; in data set [1] (Temperature 20 °C), 25.39 mass-% of solute; in data set [1] (Temperature 40 °C), 28.59 mass-% of solute; in data set [1] (Temperature 60 °C), 31.40 mass-% of solute; in data set [1] (Temperature 80 °C), 33.86 mass-% of solute; in data set [1] (Temperature 100 °C), 36.05 mass-% of solute.

For `[Cl-].[Cl-].[Mg+2]` [MgCl2, magnesium chloride], the stability constant result in data set [2] is listed as “zero”.

Take `[Cl-].[Na+]` [NaCl, sodium chloride]: the “log drop in Bacillus spp. counts” value in data set [3] is “up to 3.4 Log”. Further, the “storage time until increase of L. monocytogenes to a count of 4 Log” value in the data set with L. monocytogenes is 23 days. For the same compound, the “total aerobic viable counts” value in data set [4] is reported as 10^4-10^5 cfu/g.
